Assay results reported in ChEMBL document CHEMBL4321884, “Human Serum Albumin Binding in a Vial: A Novel UV-pH Titration Method To Assist Drug Design” (J Med Chem, 2020).

Columns and labels:
[1] = Protein binding in plasma (unknown origin); format: ADME, cell-free; settings: read-out: PPB (converted)
Albumin [2] = biological target: T1, Albumin (Homo sapiens, UniProt P02768); test: Protein binding in immobilized human serum albumin by HPLC analysis; format: ADME; settings: read-out: PB (converted)
Albumin [3] = biological target: T1, Albumin; test: Protein binding in human serum albumin after 4.5 hrs by LC-MS based rapid equilibrium dialysis method; format: ADME; settings: read-out: PB (converted)
Albumin [4] = biological target: T1, Albumin; test: Protein binding in immobilized human serum albumin after 15 mins by HPLC analysis; format: ADME; settings: read-out: PB (converted)

T1 sequence (P02768 whole entry): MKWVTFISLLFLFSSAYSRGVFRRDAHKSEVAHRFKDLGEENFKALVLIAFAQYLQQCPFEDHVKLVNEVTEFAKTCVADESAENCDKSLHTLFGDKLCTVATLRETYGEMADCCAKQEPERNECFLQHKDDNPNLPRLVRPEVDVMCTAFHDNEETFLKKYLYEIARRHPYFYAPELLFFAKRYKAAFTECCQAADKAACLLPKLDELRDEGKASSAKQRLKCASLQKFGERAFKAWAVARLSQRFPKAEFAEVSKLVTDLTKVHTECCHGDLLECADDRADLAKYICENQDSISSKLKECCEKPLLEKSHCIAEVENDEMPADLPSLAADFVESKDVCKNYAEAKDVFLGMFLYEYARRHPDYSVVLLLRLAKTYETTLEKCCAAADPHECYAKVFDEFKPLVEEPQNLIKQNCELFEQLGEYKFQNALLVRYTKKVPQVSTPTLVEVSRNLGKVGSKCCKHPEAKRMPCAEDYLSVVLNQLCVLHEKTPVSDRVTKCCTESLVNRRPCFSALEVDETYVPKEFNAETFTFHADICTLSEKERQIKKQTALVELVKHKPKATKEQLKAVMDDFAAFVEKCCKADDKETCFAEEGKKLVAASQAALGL

Compound | fraction unbound [1] | fraction unbound (Albumin [2]) | fraction unbound at 4.5 h (Albumin [3]) | fraction unbound at 0.25 h (Albumin [4])
Cc1ncc([N+](=O)[O-])n1CCO [METRONIDAZOLE] | 0.89 to 0.9 | – | – | –
CC(C)NCC(O)COc1cccc2ccccc12 (stereo not drawn) [PROPRANOLOL] | – | 0.375 | – | –
COC1=C(C(=O)Nc2ncc(C)s2)N(C)S(=O)(=O)c2ccccc21 | – | 0.158 | 0.341 | –
CCN(CC)CCC[C@H](C)Nc1ccnc2cc(Cl)ccc12 | – | 0.495 | – | –
CN1C(C(=O)Nc2ccccn2)=C(O)c2sc(Cl)cc2S1(=O)=O [LORNOXICAM] | – | – | 0.02 | –
CCCCC1(C)C(=O)N(c2ccccc2)N(c2ccccc2)C1=O | – | 0.15 | 0.359 | –
CN1C(C(=O)Nc2ccccn2)=C(O)c2sccc2S1(=O)=O [TENOXICAM] | – | – | 0.032 | –
NC(N)=Nc1nc(CSCCC(N)=NS(N)(=O)=O)cs1 [FAMOTIDINE] | 0.8 | 0.749 | 0.956 | –
CCCCc1c(OC)n(-c2ccccc2)n(-c2ccccc2)c1=O | – | 0.071 | 0.071 | –
CCOC(=O)c1cc(-c2ccc(F)cc2F)ccc1O | – | 0.025 | – | –
O=C1CN=C(c2ccccc2)c2cc([N+](=O)[O-])ccc2N1 [NITRAZEPAM] | – | 0.233 | – | –
NNC(=O)c1ccncc1 [ISONIAZID] | 1 | 0.891 | – | 0.932
CCN(CC)CCOC(=O)c1ccc(N)cc1 [PROCAINE] | 0.94 | – | – | 0.64
CO/N=C(\C(=O)N[C@@H]1C(=O)N2C(C(=O)O)=C(COC(N)=O)CS[C@H]12)c1ccco1 [CEFUROXIME] | 0.67 to 0.685 | – | – | –
COc1cc(Cc2cnc(N)nc2N)cc(OC)c1OC [TRIMETHOPRIM] | 0.585 to 0.625 | 0.627 | 0.969 | –
CN(C)CCCN1c2ccccc2CCc2ccccc21 [IMIPRAMINE] | 0.074 to 0.099 | 0.151 | – | –
CNC(=O)Oc1ccc2c(c1)[C@]1(C)CCN(C)[C@@H]1N2C [PHYSOSTIGMINE] | – | 0.8 | 0.903 | –
CN1C(C(=O)Nc2ccccn2)=C(O)c2ccccc2S1(=O)=O [PIROXICAM] | 0.01 | – | – | –
Cc1cnc(NC(=O)C2=C(O)c3ccccc3S(=O)(=O)N2C)s1 [MELOXICAM] | – | 0.001 | 0.033 | –
CC1=C(CC(=O)O)c2cc(F)ccc2/C1=C\c1ccc([S+](C)[O-])cc1 (stereo not drawn) | 0.06 to 0.065 | – | – | –
